In the assay the target is T1, CD73 (Homo sapiens, UniProt P21589).
T1 sequence (P21589 27-549): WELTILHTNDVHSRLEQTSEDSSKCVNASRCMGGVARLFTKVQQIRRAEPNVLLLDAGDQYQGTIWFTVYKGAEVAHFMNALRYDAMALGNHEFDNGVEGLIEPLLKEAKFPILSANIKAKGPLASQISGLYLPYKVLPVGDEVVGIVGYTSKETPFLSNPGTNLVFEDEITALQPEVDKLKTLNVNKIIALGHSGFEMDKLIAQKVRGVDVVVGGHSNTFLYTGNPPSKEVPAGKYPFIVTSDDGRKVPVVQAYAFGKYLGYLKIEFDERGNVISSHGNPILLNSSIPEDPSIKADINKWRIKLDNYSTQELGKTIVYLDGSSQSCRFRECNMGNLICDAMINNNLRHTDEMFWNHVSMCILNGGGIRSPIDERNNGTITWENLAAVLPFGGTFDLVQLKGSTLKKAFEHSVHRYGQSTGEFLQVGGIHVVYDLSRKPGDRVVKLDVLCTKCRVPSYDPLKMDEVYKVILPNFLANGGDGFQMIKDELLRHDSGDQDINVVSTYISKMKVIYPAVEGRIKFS
Briefly: Biochemical Assay: inhibition of CD73 activity (AMP hydrolysis, Malachite Green readout). Particulars: CD73 0.3208 nM, AMP 15 μM, 25 mM Tris-HCl pH 7.4, 10 min reaction at RT; read-out: CD73_Biochem. On the procedure:
Example A1: Biochemical Assay
Assay Reaction Conditions
• Assay Volume: 70 μl • Reaction Volume: 50 μl • CD73: 0.3208 nM • AMP: 15 μM • Assay Buffer: 2 5 mM Tris-HCL, pH 7.4, 0.01% Brij-35, 0.01% BSA, 5 mM MgCl2 Assay Procedure:
Made dose titration of testing compounds in assay buffer, 10 points ½ log titrations in duplicates starting at 100 μM.
Added 25 μl of CD73 to each well for a final concentration of 320 pM.
Incubated at RT for 15 min.
Added 25 μl of AMP to each well for a final concentration of 15 μM.
Incubated at RT for 10 min.
Added 10 μl of Malachite Green Reagent A, incubate at RT for 10 min.
Added 10 μl of Malachite Green Reagent B, incubate at RT for 45 min.
Read the Absorbance on Envision plate reader using excitation filter: Cy5 […].
The ability of the compounds disclosed herein to inhibit CD73 activity was quantified and the respective IC50 values were determined. Table 2 provides the biochemical IC50 values of compounds disclosed herein.

This is an account of results in patent US12577272B2, “CD73 inhibitors” (ORIC Pharmaceuticals, Inc., priority 2019, dated 2026).

pIC50: −log10 of the molar value.

In the case of `COCCOCC(COCc1nnn[nH]1)(OC[C@H]1O[C@@H](n2ncc3c(NC4CCCC4)nc(Cl)nc32)[C@H](O)[C@@H]1O)P(=O)(O)O` (single isomer, unassigned) [Example 2], the pIC50 is at least 8.00.
